According to patent US10913711B2, “Potent and selective inhibitors of monoamine transporters; method of making; and use thereof” (priority 2013, dated 2021):
Like-named read-outs stand apart in the source and are kept apart here.

Tests used:
[1] = target: human DAT wild type (Homo sapiens (Human), UniProt Q01959); assay: [3H]DA uptake inhibition in intact COS7 cells, hDAT WT; assay type: cell-based; conditions: [3H]DA uptake inhibition potency, read-out: hDAT WT Ki [S.E. interval]
[2] = target: human DAT A480T mutant (Homo sapiens (Human), UniProt Q01959, A480T); assay: [3H]DA uptake inhibition in intact COS7 cells, hDAT A480T; conditions: for Ki: read-out: hDAT A480T Ki [S.E. interval], [3H]DA uptake inhibition potency; for affinity at DAT A480T compared to DAT WT: uptake inhibition
human DAT A480T mutant, sequence (Q01959 whole entry A480T): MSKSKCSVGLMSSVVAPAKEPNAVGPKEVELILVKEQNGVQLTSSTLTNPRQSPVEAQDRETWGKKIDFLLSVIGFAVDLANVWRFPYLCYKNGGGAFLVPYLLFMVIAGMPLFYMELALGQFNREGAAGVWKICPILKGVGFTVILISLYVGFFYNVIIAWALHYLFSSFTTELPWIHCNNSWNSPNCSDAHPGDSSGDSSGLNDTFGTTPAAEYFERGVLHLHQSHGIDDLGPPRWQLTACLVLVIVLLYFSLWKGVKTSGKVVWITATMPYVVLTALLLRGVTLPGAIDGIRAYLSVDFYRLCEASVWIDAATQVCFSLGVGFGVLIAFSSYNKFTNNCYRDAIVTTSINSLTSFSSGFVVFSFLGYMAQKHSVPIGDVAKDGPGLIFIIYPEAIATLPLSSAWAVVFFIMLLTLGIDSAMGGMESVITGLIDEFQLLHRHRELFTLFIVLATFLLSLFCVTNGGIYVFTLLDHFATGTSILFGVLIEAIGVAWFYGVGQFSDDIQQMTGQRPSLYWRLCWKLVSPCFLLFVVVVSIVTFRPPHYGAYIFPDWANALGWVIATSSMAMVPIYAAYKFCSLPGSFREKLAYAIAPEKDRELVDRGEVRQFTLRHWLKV

[3] = target: human SERT wild type (Homo sapiens (Human), UniProt P31645); assay type: cell-based; conditions: for Ki: read-out: hSERT WT Ki [S.E. interval]
Description: (§1) Molecular Pharmacology Site-directed mutagenesis: Synthetic cDNA encoding the human DAT (synDAT) were subcloned into pcDNA3 (Invitrogen, Carlsbad, Calif.). cDNA encoding the human SERT (hSERT) was cloned into the pUbilz expression vector. Mutations herein were generated by the QuickChange method (adapted from Stratagene, La Jolla, Calif.) and confirmed by restriction enzyme mapping and DNA sequencing. Positive clones were amplified by transformation into XL1 blue competent cells (Stratagene) and positive colony picked and grown in LB media over night at 37° C. in an orbital incubator (Infors) @ 200 rpm. Plasmids were harvested using the maxi prep kit provided by Qiagen according to the manufacturer's manual.
(§2) Uptake assays were performed essentially as previously described to Cha, J. H.; Zou, M. F.; Adkins, E. M.; Rasmussen, S. G.; Loland, C. J.; Schoenenberger, B.; Gether, U.; Newman, A. H. Rhodamine-Labeled 2beta-Carbomethoxy-3beta-(3,4-Dichlorophenyl)Tropane Analogues as High-Affinity Fluorescent Probes for the Dopamine Transporter. […] Transiently transfected COS-7 cells were plated in 12-well (3*10^5 cells/well) or 24-well dishes (10^5 cells/well) coated with poly-ornithine to achieve an uptake level of no more than 10% of total added radioligand. The uptake assays were carried out 2 days after transfection. Prior to the experiment, the cells were washed once in 500 μl of uptake buffer buffer (25 mM 4-(2-hydroxyethyl)-1-piperazineethanesulfonic acid (HEPES), 130 mM NaCl, 5.4 mM KCl, 1.2 mM CaCl2, 1.2 mM MgSO4, 1 mM L-ascorbic acid, 5 mM D-glucose, and 1 μM of the catechol-O-methyltransferase inhibitor Ro 41-0960 (Sigma), pH 7.4) at room temperature (RT). […] All samples were transferred to 24-well counting plates and 500 μL (or 600 μL) of Opti-phase Hi Safe 3 scintillation fluid (Perkin Elmer) was added followed by counting of the plates in a Wallac Tri-Lux β-scintillation counter (Perkin Elmer). Nonspecific uptake was determined in the presence of 5 μM paroxetine for hSERT and 50 μM nomifensine for hDAT expressing cells. All determinations were performed in triplicate.

[4] = target: human SERT T497A mutant (Homo sapiens (Human), UniProt P31645, T497A); assay type: cell-based; conditions: for Ki: read-out: hSERT T497A Ki [S.E. interval]
Description: as §1, §2

[5] = target: SERT (Rattus norvegicus (Rat), UniProt P31652); conditions: 2i v. 2g (Table 1); 4c v. 4a (Table 2)
SERT, sequence (P31652 whole entry): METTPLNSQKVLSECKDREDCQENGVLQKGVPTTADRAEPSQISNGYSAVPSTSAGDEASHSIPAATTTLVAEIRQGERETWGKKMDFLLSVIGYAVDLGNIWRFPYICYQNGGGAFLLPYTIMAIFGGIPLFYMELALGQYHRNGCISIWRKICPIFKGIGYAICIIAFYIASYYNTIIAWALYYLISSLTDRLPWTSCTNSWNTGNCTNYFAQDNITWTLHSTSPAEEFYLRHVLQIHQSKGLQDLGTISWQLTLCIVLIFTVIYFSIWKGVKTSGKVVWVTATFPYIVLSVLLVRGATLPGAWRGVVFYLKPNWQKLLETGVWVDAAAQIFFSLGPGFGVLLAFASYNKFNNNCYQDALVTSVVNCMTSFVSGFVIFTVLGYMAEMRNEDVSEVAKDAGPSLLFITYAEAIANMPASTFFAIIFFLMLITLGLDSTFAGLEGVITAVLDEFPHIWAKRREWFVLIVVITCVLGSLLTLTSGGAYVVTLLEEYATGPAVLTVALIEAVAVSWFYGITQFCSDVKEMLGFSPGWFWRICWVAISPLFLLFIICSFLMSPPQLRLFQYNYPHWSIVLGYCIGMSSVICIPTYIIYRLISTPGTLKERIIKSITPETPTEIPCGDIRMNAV
Experimental: Brains from male Sprague-Dawley rats weighing 200-225 g (Taconic Labs, Germantown, N.Y.) were removed, midbrain dissected and rapidly frozen. […] Nonspecific binding was determined using 10 mM fluoxetine. […] The filters were washed twice with 3 mL cold buffer and transferred to scintillation vials. Beckman Ready Value (3.0 mL) was added and the vials were counted the next day using a Beckman 6000 liquid scintillation counter (Beckman Coulter Instruments, Fullerton, Calif.). […] Data were analyzed with GraphPad Prism software (San Diego, Calif.).

[6] = target: DAT (Rattus norvegicus (Rat), UniProt P23977); assay: Dopamine Transporter Binding Assay ([3H]WIN 35428, rat striatal membranes)
DAT, sequence (P23977 whole entry): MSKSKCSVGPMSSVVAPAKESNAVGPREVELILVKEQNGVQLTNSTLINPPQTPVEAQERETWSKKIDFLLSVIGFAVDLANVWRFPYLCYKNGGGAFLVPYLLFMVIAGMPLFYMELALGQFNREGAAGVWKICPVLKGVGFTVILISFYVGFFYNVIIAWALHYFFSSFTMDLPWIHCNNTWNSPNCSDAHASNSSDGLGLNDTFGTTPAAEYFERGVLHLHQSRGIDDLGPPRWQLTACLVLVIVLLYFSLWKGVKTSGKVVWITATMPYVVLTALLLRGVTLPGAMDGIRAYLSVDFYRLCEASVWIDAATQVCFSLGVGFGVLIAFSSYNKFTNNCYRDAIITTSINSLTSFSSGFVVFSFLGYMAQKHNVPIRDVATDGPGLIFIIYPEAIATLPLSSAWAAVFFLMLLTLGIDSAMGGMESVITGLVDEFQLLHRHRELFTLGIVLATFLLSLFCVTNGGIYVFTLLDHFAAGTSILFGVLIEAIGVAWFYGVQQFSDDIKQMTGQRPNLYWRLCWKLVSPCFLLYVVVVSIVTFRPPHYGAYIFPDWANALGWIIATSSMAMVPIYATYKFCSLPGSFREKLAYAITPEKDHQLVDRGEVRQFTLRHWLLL

[7] = target: NET (Rattus norvegicus (Rat), UniProt Q9WTR4); assay: Norepinephrine Transporter Binding Assay ([3H]Nisoxetine, rat frontal cortex membranes)
NET, sequence (Q9WTR4 entry or part of it): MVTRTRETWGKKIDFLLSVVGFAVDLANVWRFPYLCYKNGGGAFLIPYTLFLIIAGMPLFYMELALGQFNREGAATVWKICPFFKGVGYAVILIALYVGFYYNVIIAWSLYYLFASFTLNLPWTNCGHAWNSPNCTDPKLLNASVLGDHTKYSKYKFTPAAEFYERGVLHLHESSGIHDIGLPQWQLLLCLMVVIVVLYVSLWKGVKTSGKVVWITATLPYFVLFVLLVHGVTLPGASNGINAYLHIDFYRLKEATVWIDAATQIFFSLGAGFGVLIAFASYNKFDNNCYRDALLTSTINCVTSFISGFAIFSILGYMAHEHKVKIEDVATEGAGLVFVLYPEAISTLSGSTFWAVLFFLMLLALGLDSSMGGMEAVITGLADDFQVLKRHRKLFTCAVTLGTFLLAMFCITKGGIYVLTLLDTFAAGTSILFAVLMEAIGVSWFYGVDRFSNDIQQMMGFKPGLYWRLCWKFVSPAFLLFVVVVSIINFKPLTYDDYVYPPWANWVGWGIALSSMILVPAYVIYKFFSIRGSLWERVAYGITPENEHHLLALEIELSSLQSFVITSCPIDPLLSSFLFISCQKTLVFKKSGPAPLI
Experimental: Binding affinities of all compounds were evaluated at the DAT, SERT, and NET in rat brain membranes using previously described methods:
Norepinephrine Transporter Binding Assay. Brains from male Sprague-Dawley rats weighing 200-225 g (Taconic Labs, Germantown, N.Y.) were removed, frontal cortex dissected and rapidly frozen. Membranes were prepared by homogenizing tissues in 20 volumes (w/v) of 50 mM Tris containing 120 mM NaCl and 5 mM KCl, (pH 7.4 at 25° C.), using a Brinkman Polytron and centrifuged at 50,000×g for 10 min at 4° C. The resulting pellet was resuspended in buffer, recentrifuged and resuspended in buffer to a concentration of 80 mg/mL. Ligand binding experiments were conducted in assay tubes containing 0.5 mL buffer for 60 min at 0-4° C. […] Nonspecific binding was determined using 1 mM desipramine. Incubations were terminated by rapid filtration through Whatman GF/B filters, presoaked in 0.05% polyethylenimine, using a Brandel R48 filtering manifold (Brandel Instruments Gaithersburg, Md.). The filters were washed twice with 3 mL cold buffer and transferred to scintillation vials. Beckman Ready Value (3.0 mL) was added and the vials were counted using a Beckman 6000 liquid scintillation counter (Beckman Coulter Instruments, Fullerton, Calif.). […] All compounds were tested as racemic mixtures.

[8] = Brain concentrations in mice; conditions: mouse brain; for IV brain Conc. ng/g ± SD: 10 mg/kg IV; for PO brain Conc. ng/g ± SD: 10 mg/kg PO
Experimental: Plasma was harvested from blood by centrifugation. Additionally at two selected time points (i.e. 30 min and 2 h) brains were collected following both oral and IV dosing. Samples were extracted from plasma by a single one-step protein precipitation method (as described in bioanalysis section below). For brain tissue, whole brains were weighed and homogenized in two times the volume of acetonitrile, followed by vortexing and centrifugation. Once extracted, the samples were analyzed via LC/MS/MS (as described in bioanalysis section below). Non-compartmental-analysis module in WinNonlin™ (version 5.3) was used to assess pharmacokinetic parameters including maximal concentration (Cmax), time to Cmax (Tmax), area under the curve (AUClast), area extrapolated to infinity (AUCO-∞), terminal disposition rate constant (ke), and terminal half-life (t½).
Briefly, plasma samples were thawed on ice prior to extraction. Samples (50 μL) were extracted in 300 μL acetonitrile containing 1000 nM losartan as internal standard. For brain, 50 μL of the supernatant from homogenized tissue was extracted with 100 μL acetonitrile containing 1000 nM losartan as internal standard. Extracts were centrifuged at 16000×g at 4° C. for 10 minutes. Supernatants were transferred to a new siliconized tube and dried under N2 at 45° C. for 30 min. Samples were reconstituted with 100 μL of 30% acetonitrile, vortexed and centrifuged. Supernatants (95 μL) were transferred to a 250 μL polypropylene autosampler vials sealed with a Teflon cap and a volume of 10 μL was injected onto the ultra-performance liquid chromatography (UPLC) instrument for quantitative analysis using a temperature-controlled autosampler operating at 10° C.
The instrument was controlled by the Xcalibur software 2.3 (Thermo Scientific). Samples were introduced to the interface through Turbo Ion Spray with the temperature setting at 350° C.
Chromatographic analysis was performed using an Accela™ ultra high-performance system consisting of an analytical pump, and an autosampler coupled with TSQ Vantage mass spectrometer (Thermo Fisher Scientific Inc., Waltham Mass.).

CNC(=O)CSC(c1ccc(Cl)cc1)c1ccc(Cl)cc1 [Compound 2h, 2-((Bis(4-chlorophenyl)methyl)thio)-N-methylacetamide]
Ki [1]: 3.7 µM | Ki [2]: 2.3 µM | affinity at DAT A480T compared to DAT WT [2]: essentially the same | Ki [3]: 8.3 µM | Ki [4]: 27 µM | affinity at SERT T497A compared to SERT WT ([4]; uptake inhibition, COS7 cells): significantly decreased

NCCSC(c1ccc(Br)cc1)c1ccc(Br)cc1 [Compound 4c, 2-((bis(4-bromophenyl)methyl)thio)ethan-1-amine]
increase in SERT affinity, halogen-substituted v. unsubstituted analog [5]: 9 fold | improvement in DAT affinity, halogen-substituted v. unsubstituted analog [6]: 3 fold

O=C(CSC(c1ccc(Br)cc1)c1ccc(Br)cc1)NCCCc1ccccc1 [Compound 2x, 2-((Bis(4-bromophenyl)methyl)thio)-N-(3-phenylpropyl)acetamide]
Ki [7]: 36.3 µM

O=C(CSC(c1ccc(F)cc1)c1ccc(F)cc1)NCC1CC1 [Compound 2p, 2-((Bis(4-fluorophenyl)methyl)thio)-N-(cyclopropylmethyl)acetamide]
Ki [7]: 57.6 µM

[O-][S+](CCNCCCc1ccccc1)C(c1ccc(Cl)cc1)c1ccc(Cl)cc1 (centres unmarked) [Compound 5d, N-(2-((bis(4-chlorophenyl)methyl)sulfinyl)ethyl)-3-phenylpropan-1-amine]
Ki [7]: 5.8 µM

[O-][S+](CCN1CCN(CC(O)Cc2ccccc2)CC1)C(c1ccccc1)c1ccccc1 (racemic) [Compound 10g, 1-(4-(2-(Benzhydrylsulfinyl)ethyl)piperazin-1-yl)-3-phenylpropan-2-ol]
Ki [7]: 25.3 ± 2.04 µM

c1ccc(CCCN2CCN(CCSC(c3ccccc3)c3ccccc3)CC2)cc1 [Compound 7a, 1-(2-(Benzhydrylthio)ethyl)-4-(3-phenylpropyl)piperazine]
Ki ([7]; Table 5, piperazinyl derivatives, rat brain membranes, read-out: NET Ki ± SEM): 0.988 ± 0.0228 µM

CNC(=O)CSC(c1ccccc1)c1ccccc1 [Compound 2g, 2-(Benzhydrylthio)-N-methylacetamide]
Ki [1]: 5.5 µM | Ki [2]: 3.6 µM | Ki [7]: 27.3 µM

[O-][S+](CCN1CCN(CCCc2ccccc2)CC1)C(c1ccccc1)c1ccccc1 (centres unmarked) [Compound 8a, 1-(2-(Benzhydrylsulfinyl)ethyl)-4-(3-phenylpropyl)piperazine]
Ki [7]: 5.54 ± 0.808 µM

CC(O)CN1CCN(CCSC(c2ccccc2)c2ccccc2)CC1 (racemic) [Compound 9a, 1-(4-(2-(Benzhydrylthio)ethyl)piperazin-1-yl)propan-2-ol]
Ki [7]: 44.5 ± 2.4 µM

CCCCNCCSC(c1ccccc1)c1ccccc1 [Compound 4e, N-(2-(benzhydrylthio)ethyl)butan-1-amine]
Ki [7]: 11.5 µM

NC(=O)C[S+]([O-])C(c1ccccc1)c1cccc(Br)c1 (centres unmarked) [Compound 3e, 2-(((3-Bromophenyl)(phenyl)methyl)sulfinyl)acetamide]
Ki [7]: > 100 µM

C=CCNC(=O)CSC(c1ccccc1)c1ccccc1 [Compound 2j, N-Allyl-2-(benzhydrylthio)acetamide]
Ki [7]: > 230 µM

[O-][S+](CCNCCCc1ccccc1)C(c1ccc(Br)cc1)c1ccc(Br)cc1 (centres unmarked) [Compound 5e, N-(2-((bis(4-bromophenyl)methyl)sulfinyl)ethyl)-3-phenylpropan-1-amine]
Ki [7]: 7.58 µM | selectivity among the monoamine transporters (in words) ([6]; DAT, SERT, NET binding, rat brain membranes): SERT-selective

NCCc1c[nH]c2ccc(O)cc12 [Compound 5-HT, 5-hydroxytryptamine, reference compound]
Km ([3]; read-out: hSERT WT KM): 0.52 µM | Km ([4]; read-out: hSERT T497A KM): 1.09 µM

CNC(=O)CSC(c1ccc(Br)cc1)c1ccc(Br)cc1 [Compound 2i, 2-((Bis(4-bromophenyl)methyl)thio)-N-methylacetamide]
increase in SERT affinity, halogen-substituted v. unsubstituted analog [5]: > 50 fold | Ki [7]: 11.2 µM | improvement in DAT affinity, halogen-substituted v. unsubstituted analog [6]: 6 fold

NC(=O)CSC(c1cccc(Cl)c1)c1cccc(Cl)c1 [Compound 2e, 2-((Bis(3-chlorophenyl)methyl)thio)acetamide]
Ki [7]: 34 µM

Fc1ccc(C(SCCNCCCc2ccccc2)c2ccc(F)cc2)cc1 [Compound 4g, N-(2-((bis(4-fluorophenyl)methyl)thio)ethyl)-3-phenylpropan-1-amine]
IV brain Conc. ng/g ± SD ([8]; 0.5 h): 4776 (1324) ng/g | IV brain Conc. ng/g ± SD ([8]; 2 h): 14111 (8093) ng/g | PO brain Conc. ng/g ± SD ([8]; 0.5 h): 369 (303) ng/g | PO brain Conc. ng/g ± SD ([8]; 2 h): 223 (90) ng/g | Ki [7]: 3.85 µM

O=C(C[S+]([O-])C(c1ccc(Br)cc1)c1ccc(Br)cc1)NCCCc1ccccc1 (centres unmarked) [Compound 3g, 2-(Bis(4-bromophenyl)methylsulfinyl)-N-(3-phenylpropyl)acetamide]
Ki [7]: > 100 µM

CCCNC(=O)CSC(c1ccc(Br)cc1)c1ccc(Br)cc1 [Compound 2n, 2-((Bis(4-bromophenyl)methyl)thio)-N-propylacetamide]
Ki [7]: 10.6 µM

NCCSC(c1ccc(Cl)cc1)c1ccc(Cl)cc1 [Compound 4b, 2-((bis(4-chlorophenyl)methyl)thio)ethan-1-amine]
Ki [1]: 1.21 µM | Ki [2]: 1.37 µM | affinity at DAT A480T compared to DAT WT [2]: remain unchanged | Ki [3]: 0.27 µM | affinity at SERT T497A compared to SERT WT [4]: remain unchanged | Ki [4]: 0.17 µM

NC(=O)CSC(c1ccccc1)c1ccccc1 [Compound 2a, 2-(Benzhydrylthio)acetamide]
Ki [7]: > 100 µM

NCCSC(c1ccccc1)c1ccccc1 [Compound 4a, 2-(benzhydrylthio)ethan-1-amine]
Ki [1]: 0.39 µM | Ki [2]: 0.72 µM | affinity at DAT A480T compared to DAT WT [2]: remain unchanged | Ki [7]: 0.982 ± 0.0433 µM | Ki [3]: 0.69 µM | Ki [4]: 0.63 µM | affinity at SERT T497A compared to SERT WT ([4]; uptake inhibition, COS7 cells): remain unchanged
